Values after ≈ are worked out from the molar mass of the structure shown. Where two headings read alike, the source gives them in different places.
What was measured:
E. coli DNA gyrase [1] = biological target: T1, E. coli DNA gyrase (Escherichia coli (strain K12), UniProt P0AES4+P0AES6); assay: Agarose gel-based DNA gyrase inhibition assay; type: biochemical
Protocol: 100 ng of DNA gyrase was used to supercoil the rx pAB1 in the presence of different concentrations of a gyrase inhibitor. […] Samples were analyzed by electrophoresis in 1% w/v agarose gels followed by ethidium bromide staining and photographed under UV light.

in vitro [2] = details: mouse
in vitro [3] = details: human
E. coli DNA gyrase [4] = biological target: T1, E. coli DNA gyrase; assay: biochemical; type: biochemical
Mtb DNA gyrase = Mtb DNA gyrase (Mycobacterium tuberculosis (strain ATCC 25618 / H37Rv), UniProt P9WG45+P9WG47); assay: Mtb DNA gyrase inhibition assay (gel-based); type: biochemical; details: Table 5, Mtb gyrase; read-out: IC50 (µM) Mtb
Protocol: The IC50 against E. coli (A) and Mtb (C) gyrase were determined using the gel-based gyrase inhibition assays. The gyrase mediated DNA cleavage assays (B and D) were performed using pBR322. (A) 229 inhibits E. coli gyrase. Lane 1, rx pAB1. […] Lane 1, rx pAB1. […] 100 µM of CPDs were used. Symbols rx, nk, In, and sc represent relaxed, nicked, linear, and supercoiled DNA, respectively.
Agarose gel-based DNA gyrase inhibition assays were performed in 30 µL of 1 ×gyrase buffer (35 mM Tris-HCl, 24 mM KCl, 4 mM MgCl2, 2 mM DTT, 1.75 mM ATP, 0.1 mg/mL BSA, 6.5% glycerol, pH7.5) containing 400 ng of rx pAB1 at 37° C. 100 ng of DNA gyrase was used to supercoil the rx pAB1 in the presence of different concentrations of a gyrase inhibitor. After 15 minutes of incubation with the inhibitor at 37° C., all reactions were stopped with 1 µL of stop solution (3% SDS and 250 mM EDTA). Samples were analyzed by electrophoresis in 1% w/v agarose gels followed by ethidium bromide staining and photographed under UV light.

Mtb = Mtb whole cell assay (% inhibition, MIC); type: cell-based, Mycobacterium tuberculosis; details: Mycobacterium tuberculosis; Table 5 (same values in Table 6 at 20 µM)
S. aureus (ATCC 14775) = assay: Minimum inhibitory concentration, broth microdilution; details: for MIC: Staphylococcus aureus
Protocol: (§1) Antibacterial minimum inhibitory concentrations (MICs) were obtained from three independent experiments using broth microdilution methods in 96-well plates according to Clinical and Laboratory Standards Institute guidelines. Cells were culture from singles colonies in MHIIB medium for 24 h at 37° C. in agitation (200 RPM). The cultures were then diluted using the same media to reach an OD600 of 0.1. Then, 50 µL of the diluted cultures were added to the plates holding 50 µL of serially diluted compounds in MHIIB. The plates were incubated at 37° C. for 20 h. The starting inoculum was fixated to 10^5 colony-forming units per ml.

E. coli (ATCC 25922) = assay: as above; details: Escherichia coli, ATCC25922, read-out: Minimum Inhibitory Concentration E. coli, Tables 3a-3c
Protocol: as §1

MRSA = assay: as above; details: for MIC: Staphylococcus aureus, MRSA
Protocol: as §1

B. subtilis (ATCC 6633) = assay: as above; details: Bacillus subtilis, ATCC6633, read-out: Minimum Inhibitory Concentration B.subtilis
[5] = biological target: E. coli DNA topoisomerase IV (Escherichia coli (strain K12), UniProt P0AFI2+P20083); assay: E. coli DNA topoisomerase IV relaxation assay (gel-based); type: biochemical; details: IC50 Topoisomerase IV Gel-based, Table 8
Chain of E. coli DNA topoisomerase IV (P0AFI2 whole entry, looked up): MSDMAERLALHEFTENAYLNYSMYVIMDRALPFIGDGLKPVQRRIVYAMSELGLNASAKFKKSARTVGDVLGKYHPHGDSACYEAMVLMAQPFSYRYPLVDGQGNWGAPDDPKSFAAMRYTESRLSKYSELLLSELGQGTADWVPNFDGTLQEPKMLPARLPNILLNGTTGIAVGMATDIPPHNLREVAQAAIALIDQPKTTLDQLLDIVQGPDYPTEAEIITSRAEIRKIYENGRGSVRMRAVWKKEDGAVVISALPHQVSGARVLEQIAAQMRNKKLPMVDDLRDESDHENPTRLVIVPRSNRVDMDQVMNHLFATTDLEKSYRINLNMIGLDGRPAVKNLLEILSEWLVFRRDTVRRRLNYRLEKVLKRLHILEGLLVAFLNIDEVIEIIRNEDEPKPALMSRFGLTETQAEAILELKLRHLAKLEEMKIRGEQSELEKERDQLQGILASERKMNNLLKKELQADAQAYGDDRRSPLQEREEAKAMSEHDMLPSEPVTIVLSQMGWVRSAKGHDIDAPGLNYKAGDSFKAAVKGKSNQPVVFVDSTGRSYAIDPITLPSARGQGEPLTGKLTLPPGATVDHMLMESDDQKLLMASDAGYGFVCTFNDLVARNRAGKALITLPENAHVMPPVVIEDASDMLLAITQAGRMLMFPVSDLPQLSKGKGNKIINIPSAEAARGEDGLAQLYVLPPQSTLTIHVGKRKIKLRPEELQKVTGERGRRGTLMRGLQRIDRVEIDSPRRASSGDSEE
Chain of E. coli DNA topoisomerase IV (P20083 whole entry, looked up): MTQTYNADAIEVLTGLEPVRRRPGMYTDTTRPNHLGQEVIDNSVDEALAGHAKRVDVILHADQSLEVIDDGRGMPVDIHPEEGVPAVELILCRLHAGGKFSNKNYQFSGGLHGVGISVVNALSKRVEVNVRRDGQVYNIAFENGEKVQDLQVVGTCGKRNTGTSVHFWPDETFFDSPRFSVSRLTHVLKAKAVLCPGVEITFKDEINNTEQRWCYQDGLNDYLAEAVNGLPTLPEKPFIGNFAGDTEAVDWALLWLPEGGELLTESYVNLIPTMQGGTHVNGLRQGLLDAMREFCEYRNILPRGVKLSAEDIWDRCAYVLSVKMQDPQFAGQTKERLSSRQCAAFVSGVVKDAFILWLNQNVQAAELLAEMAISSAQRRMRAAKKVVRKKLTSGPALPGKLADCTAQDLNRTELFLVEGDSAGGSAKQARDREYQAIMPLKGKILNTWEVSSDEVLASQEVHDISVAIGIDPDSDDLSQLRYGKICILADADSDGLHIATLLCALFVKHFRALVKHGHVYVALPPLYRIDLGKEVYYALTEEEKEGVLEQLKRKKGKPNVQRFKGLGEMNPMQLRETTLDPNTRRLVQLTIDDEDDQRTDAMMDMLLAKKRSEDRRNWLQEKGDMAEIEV
Protocol: Relaxation assays by E. coli DNA topoisomerase IV and the ATPase assays were performed. […] Lane 1 is supercoiled plasmid pAB1. […] The supercoiled, fluorescently-labeled plasmid pAB1_FL905 was used.

[6] = IC50 (µM) EC, Table 5, E. coli gyrase
[7] = ATCC14775, read-out: MIC (µM) SA
[8] = IC50 (50-200 µM), bin of Table 2
[9] = ATCC14775, read-out: Minimum Inhibitory Concentration S.aureus
[10] = read-out: Minimum Inhibitory Concentration S.aureus MRSA
[11] = IC50 ([…]-50 µM), bin of Table 2
[12] = IC50 (15-[…] µM), bin of Table 2

Row | Compound | inhibition of E. coli DNA gyrase activities (E. coli DNA gyrase [1]; 50 µM of compounds) | IC50 (in vitro [2]) [µM] | IC50 (in vitro [3]) [µM] | IC50 (E. coli DNA gyrase [4]; [6]) [µM] | IC50 (Mtb DNA gyrase) [µM] | inhibition at 20 µM (Mtb) [%] | MIC (S. aureus (ATCC 14775); [7]) [µM] | MIC (S. aureus (ATCC 14775); [9]) [µM] | MIC (MRSA; [10]) [µM] | further results
1 | CSc1nc(SCC(=O)O)c2sc3nc(-c4ccccc4)c4c(c3c2n1)CCC4 [Compound 19] | completely inhibited | > 200 | > 200 |  |  |  |  |  |  | inhibition of E. coli DNA gyrase activities (E. coli DNA gyrase [1]; 200 µM of compounds): completely inhibited
2 | Cc1c(CCC(=O)O)c(=O)oc2cc3occ(-c4ccc(Cl)cc4)c3cc12 [Compound 25] | almost completely inhibited |  |  | 11.5 | 65 | 0.8 | > 200 |  |  | inhibition of E. coli DNA gyrase activities (E. coli DNA gyrase [1]; 200 µM of compounds): completely inhibited; inhibition of E. coli DNA gyrase activities (E. coli DNA gyrase [4]): potent bacterial DNA gyrase inhibitors
3 | CC(=O)Nc1ccc(S(=O)(=O)Nc2nc3ccccc3nc2Nc2ccc(C(=O)O)c(O)c2)cc1 [Compound 30] |  | > 200 | > 200 |  |  |  |  |  |  | 
4 | O=C(O)c1cccc(-c2ccc(/C=c3/sc4nc5ccccc5n4c3=O)o2)c1 [Compound 47] | completely inhibited | > 200 | > 200 |  |  |  |  |  |  | inhibition of E. coli DNA gyrase activities (E. coli DNA gyrase [1]; 200 µM of compounds): completely inhibited
5 | CC(=O)Nc1ccc(/C=C2\Sc3ccccc3C2=O)cc1 [Compound 54] |  | > 200 | > 200 |  |  |  |  |  |  | inhibition of E. coli DNA gyrase activities (E. coli DNA gyrase [1]; 200 µM of compounds): almost completely inhibited; IC50 (E. coli DNA gyrase [4]; [8]): 50 to 200 µM
6 | Cc1cc(/C=C2\SC(=S)NC2=O)c(C)n1C [Compound 64] |  | > 200 | > 200 |  |  |  |  |  |  | inhibition of E. coli DNA gyrase activities (E. coli DNA gyrase [1]; 200 µM of compounds): completely inhibited; IC50 (E. coli DNA gyrase [4]; [8]): 50 to 200 µM
7 | COc1cc2ccccc2cc1C(=O)NC(=S)Nc1ccc(C(=O)O)cc1 [Compound 72] |  |  |  |  |  |  |  |  |  | MIC (E. coli (ATCC 25922)): 100 µM (≈ 38 µg/mL)
8 | O=C(Nc1cccc(C2=NCCN2)c1)Nc1cccc(C2=NCCN2)c1 [Compound 79] |  |  |  |  |  |  |  | 200 (≈ 69.7 µg/mL) | 200 (≈ 69.7 µg/mL) | IC50 (E. coli DNA gyrase [4]; [8]): 50 to 200 µM; MIC (E. coli (ATCC 25922)): 200 µM (≈ 69.7 µg/mL); MIC (B. subtilis (ATCC 6633)): 100 µM (≈ 34.8 µg/mL)
9 | COc1cccc(-n2c(C)cc(/C=C3/C(=N)N4C(=NC3=O)SN=C4[S+](C)[O-])c2C)c1 (stereo not drawn) [Compound 105] | completely inhibited |  |  |  |  |  |  | 50 (≈ 22.1 µg/mL) | 100 (≈ 44.2 µg/mL) | IC50 (E. coli DNA gyrase [4]; [11]): 25 to 50 µM; MIC (B. subtilis (ATCC 6633)): 25 µM (≈ 11 µg/mL)
10 | O=C(O)c1ccc(NN=CC=Cc2ccc([N+](=O)[O-])o2)cc1 [Compound 110] | potently inhibited | > 200 | > 200 |  |  |  |  |  |  | IC50 (E. coli DNA gyrase [4]; [8]): 50 to 200 µM
11 | Cc1c(CC(=O)O)c(=O)oc2c(C)c3occ(-c4ccc(Br)cc4)c3cc12 [Compound 117] | completely inhibited |  |  | 15.7 | 50 | 24.7 | 1.6 (≈ 0.684 µg/mL) | 1.56 (≈ 0.667 µg/mL) | 1.56 (≈ 0.667 µg/mL) | MIC (MRSA; read-out: MIC (µM) MRSA): 1.6 µM (≈ 0.684 µg/mL)
12 | Cc1c(C)c2cc3c(-c4ccc(Br)cc4)coc3c(C)c2oc1=O [Compound 118] |  |  |  | > 200 | > 200 | 21.8 | > 200 |  |  | MIC (MRSA; read-out: MIC (µM) MRSA): > 200 µM
13 | Cc1c(CCC(=O)O)c(=O)oc2c(C)c3occ(-c4ccc(Cl)cc4)c3cc12 [Compound 120] | completely inhibited |  |  | 7.9 | 33 | 18.7 | 1.6 (≈ 0.635 µg/mL) | 1.56 (≈ 0.619 µg/mL) | 1.56 (≈ 0.619 µg/mL) | MIC (MRSA; read-out: MIC (µM) MRSA): 1.6 µM (≈ 0.635 µg/mL)
14 | Cc1c(CCC(=O)O)c(=O)oc2c(C)c3occ(-c4ccccc4)c3cc12 [Compound 121] |  |  |  | 28 | 58 | 36.7 | 3.1 (≈ 1.12 µg/mL) | 3.12 (≈ 1.13 µg/mL) | 3.12 (≈ 1.13 µg/mL) | MIC (MRSA; read-out: MIC (µM) MRSA): 3.1 µM (≈ 1.12 µg/mL); MIC (B. subtilis (ATCC 6633)): 50 µM (≈ 18.1 µg/mL)
15 | Cc1coc2cc3oc(=O)c(CCC(=O)O)c(C)c3cc12 [Compound 122] | potently inhibited |  |  | > 200 | > 200 | 15.7 | > 200 |  |  | MIC (MRSA; read-out: MIC (µM) MRSA): > 200 µM
16 | Cc1c(CCC(=O)O)c(=O)oc2c(C)c3occ(-c4ccc(F)cc4)c3cc12 [Compound 123] | completely inhibited |  |  | 28.1 | 34 | 31.8 | 1.6 (≈ 0.609 µg/mL) | 1.56 (≈ 0.593 µg/mL) | 1.56 (≈ 0.593 µg/mL) | MIC (MRSA; read-out: MIC (µM) MRSA): 1.6 µM (≈ 0.609 µg/mL); MIC (B. subtilis (ATCC 6633)): 6.25 µM (≈ 2.38 µg/mL)
17 | Cc1c(CCC(=O)O)c(=O)oc2c(C)c3occ(-c4ccc(N5CCCC5)cc4)c3cc12 [Compound 125] | completely inhibited |  |  | 4.9 | 55 | 10.2 | > 200 |  |  | inhibition of E. coli DNA gyrase activities (E. coli DNA gyrase [4]): potently inhibited; growth of S. aureus (S. aureus (ATCC 14775)): did not inhibit the growth; growth of MRSA (MRSA): did not inhibit the growth
18 | CCn1c(N)[n+](CC(=O)Nc2ccc(SC(F)F)cc2)c2ccccc21.[Cl-] [Compound 135] | completely inhibited |  |  |  |  |  |  | 50 | 50 | IC50 (E. coli DNA gyrase [4]; [12]): 15 to 25 µM; MIC (E. coli (ATCC 25922)): 200 µM; MIC (B. subtilis (ATCC 6633)): 50 µM
19 | Cc1ccc2nc3n(c2c1C)C/C(=C/c1ccc(-c2ccccc2C(=O)O)o1)[S+]3[O-] (stereo not drawn) [Compound 155] | completely inhibited |  |  |  |  |  |  | 100 (≈ 41.8 µg/mL) | 50 (≈ 20.9 µg/mL) | IC50 (E. coli DNA gyrase [4]; [12]): 15 to 25 µM; MIC (B. subtilis (ATCC 6633)): 50 µM (≈ 20.9 µg/mL)
20 | COc1cc(/C=N/N=c2\[nH]c3ccccc3s2)cc([N+](=O)[O-])c1O [Compound 178] | completely inhibited | > 200 | > 200 |  |  |  |  |  |  | 
21 | CCN(CC)c1ccc(C=C2SC(=S)NC2=O)cc1 [Compound 212] | completely inhibited | > 200 | > 200 |  |  |  |  |  |  | inhibition of E. coli DNA gyrase activities (E. coli DNA gyrase [1]; 200 µM of compounds): completely inhibited; IC50 (E. coli DNA gyrase [4]; [11]): 25 to 50 µM
22 | O=C(O)c1cc(O)c(O)c(O)c1 [gallic acid] |  |  |  |  |  |  |  |  |  | IC50 (E. coli DNA gyrase [1]; Table 8, read-out: IC50 Gyrase Gel-based): > 500 µM; inhibition of E. coli DNA gyrase activities (E. coli DNA gyrase [4]): does not inhibit E. coli DNA gyrase up to 500 µM; IC50 [5]: > 500 µM

Source: patent US20230364057A1, “BACTERIAL DNA GYRASE INHIBITORS AND METHODS OF USE THEREOF” (THE FLORIDA INTERNATIONAL UNIVERSITY BOARD OF TRUSTEES, priority 2022, published 2023)
